From ChEMBL document CHEMBL1129576, “Nucleosides and nucleotides. 158. 1-(3-C-ethynyl-beta-D-ribo-pentofuranosyl)-cytosine, 1-(3-C-ethynyl-beta-D-ribo-pentofuranosyl)uracil, and their nucleobase analogues as new potential multifunctional antitumor nucleosides with a broad spectrum of activity” (J Med Chem, 1996)
Values belong to the compound of their own block, whether it stands above or below them.

Tests used:
KB [1] = test: In vitro tumor cell growth inhibitory activity against human nasopharyngeal KB cell lines; format: functional, cell-based
L1210 = test: In vitro tumor cell growth inhibitory activity against mouse leukemia L1210 cell lines.; format: functional, cell-based
A-375 = test: In vitro tumor cell growth inhibitory activity against Human melanoma cell lines. A375; format: functional, cell-based
A-431 = test: In vitro tumor cell growth inhibitory activity against Human […] A431 cell lines; format: functional, cell-based
HCT-15 = test: In vitro tumor cell growth inhibitory activity against HCT-15; format: functional, cell-based; settings: Homo sapiens
HOS = test: In vitro tumor cell growth inhibitory activity against Human osteosarcoma cell lines. HOS; format: functional, cell-based
HT-1080 = test: In vitro tumor cell growth inhibitory activity against Human fibrosarcoma HT1080 cell lines.; format: functional, cell-based
[2] = tested on: KATO III stomach cancer cell line; test: In vitro tumor cell growth inhibitory activity of Human stomach (adenocarcinoma) cell lines. KATO-III; format: functional, cell-based
KK-47 cell line = test: In vitro tumor cell growth inhibitory activity against Human bladder carcinoma cell lines. kK-47; format: functional, cell-based
MDA-MB-231 = test: In vitro tumor cell growth inhibitory activity against Human breast (adenocarcinoma) cell lines. […]; format: functional, cell-based
MKN-28 = test: In vitro tumor cell growth inhibitory activity against Human stomach (adenocarcinoma) cell lines. MKN-28; format: functional, cell-based
MCF7 = test: In vitro tumor cell growth inhibitory activity against Human breast (adenocarcinoma) cell lines. MCF-7; format: functional, cell-based
MG-63 = test: In vitro tumor cell growth inhibitory activity against Human osteosarcoma cell lines MG-63.; format: functional, cell-based
Lu-65 = test: In vitro tumor cell growth inhibitory activity against Human lung large-cell carcinoma Lu-65 cell lines.; format: functional, cell-based
Mus musculus [3] = test: In vivo inhibitory activity against H-81 tumor xenograft of stomach in nude mice at a concentration of 2 mg/kg for 10 days; format: functional
Mus musculus [4] = test: In vivo inhibitory activity against Hucc-T1 cells tumor xenograft of bile duct in nude mice at a concentration of 2 mg/kg for 10 days; format: functional
Mus musculus [5] = test: In vivo inhibitory activity against JRC-11 cell tumor xenograft of renal in nude mice at a concentration of 2 mg/kg for 10 days; format: functional
Mus musculus [6] = test: In vivo inhibitory activity against KM12C tumor xenograft of […] in nude mice at a concentration of 2 mg/kg for 10 days; format: functional
Mus musculus [7] = test: In vivo inhibitory activity against AZ-521 tumor xenograft of stomach in nude mice at a concentration of 2 mg/kg for 10 days; format: functional
Mus musculus [8] = test: In vivo inhibitory activity against BxPC-3 tumor xenograft of pancreas in nude mice at a concentration of 2 mg/kg for 10 days; format: functional
Mus musculus [9] = test: In vivo inhibitory activity against CO-3 tumor xenograft of […] in nude mice at a concentration of 2 mg/kg for 10 days; format: functional
Mus musculus [10] = test: In vivo inhibitory activity against DLD-1 tumor xenograft of […] in nude mice at a concentration of 2 mg/kg for 10 days; format: functional
Mus musculus [11] = test: In vivo inhibitory activity against H-31 cells tumor xenograft of breast in nude mice at a concentration of 2 mg/kg for 10 days; format: functional
Mus musculus [12] = test: In vivo inhibitory activity against NUGC-3 tumor xenograft of stomach in nude mice at a concentration of 2 mg/kg for 10 days; format: functional
Mus musculus [13] = test: In vivo inhibitory activity against PAN-12 tumor xenograft of pancreas in nude mice at a concentration of 2 mg/kg for 10 days; format: functional
NAKAJIMA = test: In vitro tumor cell growth inhibitory activity against Human stomach (adenocarcinoma) cell lines. h) NAKAJIMA; format: functional, cell-based
NCI-H417 = test: In vitro tumor cell growth inhibitory activity against Human lung small-cell carcinoma cell NCI-H-417; format: functional, cell-based
NUGC-4 = test: In vitro tumor cell growth inhibitory activity of Human stomach (adenocarcinoma) cell lines. NUGC-4; format: functional, cell-based
PC10 = test: In vitro tumor cell growth inhibitory activity against Human lung (adenocarcinoma) cell lines PC-10; format: functional, cell-based
PC-8 = test: In vitro tumor cell growth inhibitory activity against Human lung (adenocarcinoma) cell lines. PC-8; format: functional, cell-based
PC-9 = test: In vitro tumor cell growth inhibitory activity against Human lung (adenocarcinoma) cell lines PC-9; format: functional, cell-based
[14] = In vitro tumor cell growth inhibitory activity against Human lung squamous-cell carcinoma cell lines QG-95; format: functional
QG-56 = test: In vitro tumor cell growth inhibitory activity against Human lung squamous-cell carcinoma cell linesQG-56; format: functional, cell-based
QG-90 = test: In vitro tumor cell growth inhibitory activity against Human lung small-cell carcinoma cell lines. QG-90; format: functional, cell-based
QG-96 = test: In vitro tumor cell growth inhibitory activity against Human lung small-cell carcinoma cellb) QG-96; format: functional, cell-based
SW48 = test: In vitro tumor cell growth inhibitory activity against Human colon (adenocarcinoma) cell lines. SW-48; format: functional, cell-based
SW480 = test: In vitro tumor cell growth inhibitory activity against Human colon (adenocarcinoma) cell lines. SW-480; format: functional, cell-based
SK-MEL-28 = test: In vitro tumor cell growth inhibitory activity against Human melanoma cell lines. SK-MEL-28; format: functional, cell-based
ST-KM-1 = test: In vitro tumor cell growth inhibitory activity against Human stomach (adenocarcinoma) cell linesST-KM; format: functional, cell-based
T-24 = test: In vitro tumor cell growth inhibitory activity against Human bladder carcinoma cell lines. T24; format: functional, cell-based
fLS = test: In vitro tumor cell growth inhibitory activity of Human stomach (adenocarcinoma) cell lines. fLS; format: functional, cell-based
YMB-1-E = test: In vitro tumor cell growth inhibitory activity against Human breast (adenocarcinoma) cell lines YMB-1-E.; format: functional, cell-based
KB [15] = test: In vitro tumor cell growth inhibitory activity against Human melanoma cell lines. KB; format: functional, cell-based
PANC-1 = test: In vitro tumor cell growth inhibitory activity against Human pancreas (adenocarcinoma) cell lines. PANC-1; format: functional, cell-based
NCI-H82 (Homo sapiens) = test: In vitro tumor cell growth inhibitory activity against Human lung small-cell carcinoma cellc) NCI-H-82
[16] = tested on: MIA PaCa-2 (Homo sapiens); test: In vitro tumor cell growth inhibitory activity against Human pancreas (adenocarcinoma) cell Mia-PaCa-2
[17] = In vitro tumor cell growth inhibitory activity against Human stomach (adenocarcinoma) cell lines STSA-1
MKN-45 (Homo sapiens) = test: In vitro tumor cell growth inhibitory activity against Human stomach (adenocarcinoma) cell lines. MKN-45

IC50 (KB [1]): 830 nM
IC50 (L1210): 690 nM
SMILES: C#C[C@@]1(O)[C@@H](CO)O[C@@H](n2cnc3c(N)ncnc32)[C@@H]1O

IC50 (A-375): 21 nM
IC50 (A-431): 290 nM
IC50 (HCT-15): 75 nM
IC50 (HT-1080): 160 nM
IC50 [2]: 31 nM
IC50 (KB [1]): 29 nM
IC50 (L1210): 130 nM
IC50 (MDA-MB-231): > 1900 nM
IC50 (MKN-28): 65 nM
IC50 (MCF7): 200 nM
IC50 (NCI-H417): 110 nM
IC50 (PC-9): 190 nM
IC50 (SW48): > 1900 nM
IC50 (SW480): 340 nM
IC50 (SK-MEL-28): 86 nM
IC50 (KB [15]): 29 nM
IC50 (PANC-1): > 1900 nM
IC50 (NCI-H82 (Homo sapiens)): 230 nM
IC50 [16]: 54 nM
IC50 [17]: 1900 nM
IC50 (MKN-45 (Homo sapiens)): 52 nM
SMILES: C#C[C@]1(O)[C@@H](CO)O[C@@H](n2ccc(=O)[nH]c2=O)[C@@H]1O
IC50 (HOS): 1800 nM
IC50 (KK-47 cell line): 89 nM
IC50 (MG-63): > 1900 nM
IC50 (Lu-65): 89 nM
Inhibition ratio (Mus musculus [3]): 92%
Inhibition ratio (Mus musculus [4]): 64%
Inhibition ratio (Mus musculus [5]): 75%
Inhibition ratio (Mus musculus [6]): 81%
Inhibition ratio (Mus musculus [7]): 81%
Inhibition ratio (Mus musculus [8]): 35%
Inhibition ratio (Mus musculus [9]): 90%
Inhibition ratio (Mus musculus [10]): 73%
Inhibition ratio (Mus musculus [11]): 82%
Inhibition ratio (Mus musculus [12]): 54%
Inhibition ratio (Mus musculus [13]): 81%
IC50 (NAKAJIMA): 780 nM
IC50 (NUGC-4): 220 nM
IC50 (PC10): > 1900 nM
IC50 (PC-8): 330 nM
IC50 [14]: 280 nM
IC50 (QG-56): 150 nM
IC50 (QG-90): 1000 nM
IC50 (QG-96): 380 nM
IC50 (ST-KM-1): 86 nM
IC50 (T-24): 210 nM
IC50 (fLS): 230 nM
IC50 (YMB-1-E): > 1900 nM
